The assay relates to anti-Aβ antibodies in sera from vaccinated baboons. Kind of assay: Epitope mapping, 10-mer peptide-based ELISA with sera from vaccinated baboons. The following applies: peptide as plate coating. In general terms: ELISA stands for enzyme-linked immunosorbent assay.

Here are results for nine substances from US9102752B2, “Peptide vaccine for prevention and immunotherapy of dementia of the Alzheimer's type” (United Biomedical, Inc., priority 2013, dated 2015).

Description: Fine specificity analyses of anti-Aβ antibodies in immunized hosts or vaccines were determined by epitope mapping.
These nested peptides were used individually to coat microtiter wells as solid-phase immunoadsorbents for ELISA tests. The positive control ELISA plate was coated with Aβ1-28. They were tested for antibody binding with the sera from the four immunized baboons, from weeks 0, 10, 84 and 111. Baboon sera were serially diluted and assayed on plates coated with a 10-mer peptide at 5 ug/mL.

In the case of 8 (TEEISEVKMD) [Peptide 8], the “ELISA Titer titers (Log10)” value (0 weeks post immunization) was 0.23 Log10, the “ELISA Titer titers (Log10)” value (10 weeks post immunization) came out at 0.26 Log10, the “ELISA Titer titers (Log10)” value (84 weeks post immunization) stood at 0.16 Log10 and the “ELISA Titer titers (Log10)” value (111 weeks post immunization) is 0.15 Log10.

For 9 (EEISEVKMDA) [Peptide 9], the “ELISA Titer titers (Log10)” value (0 weeks post immunization) is on record as 0.24 Log10, the “ELISA Titer titers (Log10)” value (10 weeks post immunization) was 0.30 Log10, the “ELISA Titer titers (Log10)” value (84 weeks post immunization) amounted to 0.21 Log10 and the “ELISA Titer titers (Log10)” value (111 weeks post immunization) is 0.22 Log10.

Consider 10 (EISEVKMDAE) [Peptide 10], for which the “ELISA Titer titers (Log10)” value (0 weeks post immunization) came to 0.23 Log10, the “ELISA Titer titers (Log10)” value (10 weeks post immunization) amounted to 0.25 Log10, the “ELISA Titer titers (Log10)” value (84 weeks post immunization) was found to be 0.16 Log10 and the “ELISA Titer titers (Log10)” value (111 weeks post immunization) is on record as 0.14 Log10.

Take 11 (ISEVKMDAEF) [Peptide 11]: the “ELISA Titer titers (Log10)” value was 0.20 Log10 (0 weeks post immunization), 0.20 Log10 (10 weeks post immunization), 0.15 Log10 (84 weeks post immunization) and 0.13 Log10 (111 weeks post immunization).

On to 12 (SEVKMDAEFR) [Peptide 12], for which the “ELISA Titer titers (Log10)” value runs as follows: (0 weeks post immunization) 0.21 Log10; (10 weeks post immunization) 0.24 Log10; (84 weeks post immunization) 0.16 Log10; (111 weeks post immunization) 0.13 Log10.

With 13 (EVKMDAEFRH) [Peptide 13], the “ELISA Titer titers (Log10)” value (0 weeks post immunization) was 0.19 Log10, the “ELISA Titer titers (Log10)” value (10 weeks post immunization) was 0.23 Log10, the “ELISA Titer titers (Log10)” value (84 weeks post immunization) came out at 0.16 Log10 and the “ELISA Titer titers (Log10)” value (111 weeks post immunization) was 0.14 Log10.

For the substance 14 (VKMDAEFRHD) [Peptide 14], the “ELISA Titer titers (Log10)” value is, setting by setting: (0 weeks post immunization) 0.27 Log10; (10 weeks post immunization) 0.46 Log10; (84 weeks post immunization) 0.48 Log10; (111 weeks post immunization) 0.55 Log10.

Turning to 15 (KMDAEFRHDS) [Peptide 15], the “ELISA Titer titers (Log10)” value reads like this: (0 weeks post immunization) 0.26 Log10; (10 weeks post immunization) 0.36 Log10; (84 weeks post immunization) 0.41 Log10; (111 weeks post immunization) 0.51 Log10.

As to 16 (MDAEFRHDSG) [Peptide 16], the “ELISA Titer titers (Log10)” value runs as follows: (0 weeks post immunization) 0.26 Log10; (10 weeks post immunization) 0.32 Log10; (84 weeks post immunization) 0.16 Log10; (111 weeks post immunization) 0.17 Log10.
